Experimental data taken from patent US20240398818A1, “Cardiosafe Antidiabetic Therapy” (priority 2018, published 2024).

Tested on: adult patients with type 2 diabetes mellitus and with increased or high or very high CV risk evidenced by a history of established macrovascular or renal …
Test: Cardiovascular (Safety) and Renal Microvascular Outcome Trial (linagliptin versus placebo)
Format: in vivo
Settings: for All-cause mortality, Hazard Ratio: linagliptin vs placebo
Method: The effect of linagliptin on cardiovascular risk in adult patients with type 2 diabetes mellitus and with increased or high or very high CV risk evidenced by a history of established macrovascular or renal disease was evaluated in a Cardiovascular and Renal Microvascular Outcome Trial, a multi-center, multi-national, randomized, double-blind parallel group trial. The trial compared the risk of experiencing a major adverse cardiovascular event (MACE) between linagliptin and placebo when these were added to and used concomitantly with standard of care treatments for diabetes and other cardiovascular risk factors. The trial was event driven and patients were followed until at least 611 primary outcome events accrued.
A total of 6979 patients were treated (linagliptin 5 mg=3494; placebo=3485) and followed for a median of 2.2 years (median time on treatment 1.9 years). Approximately 80% of the study population was Caucasian, 9% was Asian, and 6% was Black. The mean age was 66 years and 63% were male.
The trial population included 1211 (17.4%) patients ≥75 years of age and 4348 (62.3%) patients with renal impairment. Approximately 19% of the population had eGFR ≥45 to <60 mL/min/1.73 m2, 28% of the population had eGFR ≥30 to <45 mL/min/1.73 m2 and 15% had eGFR <30 mL/min/1.73 m2. Overall, the use of diabetes medications was balanced across treatment groups (metformin 54%, sulfonylurea 32%, and insulin 57%). The use of medications to reduce cardiovascular risk was also balanced (aspirin 62%, statins 72%, ACE inhibitors or ARBs 81%, beta blockers 60%, and calcium channel blockers 41%).
The primary endpoint in the Cardiovascular and Renal Microvascular Outcome Trial was the time to first occurrence of three point (3P) MACE. A major adverse cardiac event was defined as a cardiovascular death or a nonfatal myocardial infarction (MI) or a nonfatal stroke. The statistical analysis plan tested for non-inferiority for the occurrence of (3P) MACE. The secondary endpoint was a renal composite, defined as renal death or sustained end stage renal disease or sustained decrease of 40% or more in eGFR.
The microvascular endpoint was defined as the composite of renal death, sustained ESRD, sustained decrease of ≥50% in eGFR, albuminuria progression, use of retinal photocoagulation or intravitreal injections of an anti-VEGF therapy for diabetic retinopathy or vitreous hemorrhage or diabetes-related-blindness. The estimated hazard ratio for time to first occurrence for the composite microvascular endpoint was 0.86 (95% CI 0.78, 0.95) for linagliptin versus placebo; mainly driven by albuminuria progression.
People with type 2 diabetes (T2D) with concomitant chronic kidney disease (CKD) and cardiovascular (CV) disease are at increased risk for recurrent CV events and hypoglycemia. Treatment of these individuals is clinically challenging, where the evidence-base for safety and efficacy of glucose lowering drugs is scarce, in particular in GFR categories G3b (eGFR 30-44 ml/min/1.73 m2), G4 (eGFR <30) and G5 (eGFR <15). We analyzed baseline characteristics and effects on CV and kidney outcomes with the DPP-4 inhibitor linagliptin (LINA) vs. placebo (PBO), across GFR categories in the Cardiovascular and Renal Microvascular Outcome Trial. People with T2D and either i) UACR >30 mg/g with concomitant CV disease, or ii) eGFR <45 ml/min/1.73 m^2 regardless of UACR, or eGFR ≥45-75 mL/min/1.73 m^2 and UACR >200 mg/g, were randomized to LINA 5 mg or placebo (PBO) q.d. in a double-blind fashion. The primary outcome was first occurrence of CV death, non-fatal myocardial infarction, or non-fatal stroke (3P-MACE), with an adjudicated secondary composite outcome of ESKD, renal death, or sustained ≥40% decrease in eGFR from baseline. Other adjudicated outcomes included hospitalized heart failure (hHF) and the 3P-MACE components. Subgroup-effects across GFR categories (G≤2, G3a, G3b and G≥4) were also assessed. […]

[1] = LINA vs PBO, across all GFR categories
[2] = linagliptin relative to placebo, listed as linagliptin

**Q.** How did the “HbA1c (in words)” value [1] turn out when `CC#CCn1c(N2CCC[C@@H](N)C2)nc2c1c(=O)n(Cc1nc(C)c3ccccc3n1)c(=O)n2C` [Linagliptin, 1-[(4-methyl-quinazolin-2-yl)methyl]-3-methyl-7-(2-butyn-1-yl)-8-(3-(R)-amino-piperidin-1-yl)-xanthine] was run?
**A.** reduced significantly

**Q.** And the “risk for hypoglycemia (in words)” value [1]?
**A.** without increased risk

**Q.** And the “Progression of albuminuria category, patients with event / patients analysed” value (in vivo)?
**A.** 763/2162

**Q.** What about the “risk of HHF regardless of baseline renal function (in words)” value (in vivo) of the same compound?
**A.** did not affect

**Q.** What about the “Hospitalization for heart failure, Hazard Ratio” value (linagliptin relative to placebo) of the same compound?
**A.** 0.90

**Q.** And the “Secondary renal composite, Hazard Ratio” value (linagliptin relative to placebo, listed as LINA)?
**A.** 1.04

**Q.** What about the “3P-MACE, Hazard Ratio” value (linagliptin relative to placebo, listed as TRADJENTA) of the same compound?
**A.** 1.02

**Q.** And the “3P-MACE, Hazard Ratio” value [2]?
**A.** 1.02

**Q.** What about the “Secondary renal composite, Hazard Ratio” value [2] of the same compound?
**A.** 1.04

**Q.** And the “albuminuria progression (normo- to micro-/macroalbuminuria, or micro- to macroalbuminuria), hazard ratio” value (linagliptin versus placebo)?
**A.** 0.86

**Q.** What about the “composite microvascular endpoint, time to first occurrence, hazard ratio” value (linagliptin versus placebo, mainly driven by albuminuria progression) of the same compound?
**A.** 0.86

**Q.** And the “All-cause mortality, Hazard Ratio” value?
**A.** 0.98

**Q.** What about the “All-cause mortality, Hazard Ratio” value (listed as TRADJENTA) of the same compound?
**A.** 0.98

**Q.** And the “All-cause mortality, Hazard Ratio” value (listed as linagliptin)?
**A.** 0.98

**Q.** And the “3P-MACE, Incidence Rate per 1000 PY” value (median follow-up 2.2 years)?
**A.** 57.7 per 1000 PY

**Q.** And the “3P-MACE, Subjects (%)” value (median follow-up 2.2 years)?
**A.** (12.4) %

**Q.** What about the “All-cause mortality, Incidence Rate per 1000 PY” value (median follow-up 2.2 years) of the same compound?
**A.** 46.9 per 1000 PY

**Q.** What about the “All-cause mortality, Subjects (%)” value (median follow-up 2.2 years) of the same compound?
**A.** (10.5) %

**Q.** And the “Hospitalization for heart failure, Incidence Rate per 1000 PY” value (median follow-up 2.2 years)?
**A.** 27.7 per 1000 PY

**Q.** And the “Hospitalization for heart failure, Number of Subjects” value (median follow-up 2.2 years)?
**A.** 209

**Q.** And the “Hospitalization for heart failure, Subjects (%)” value (median follow-up 2.2 years)?
**A.** (6.0) %

**Q.** What about the “Secondary renal composite (renal death, ESRD, 40% sustained decrease in eGFR), Number of Subjects” value (median follow-up 2.2 years) of the same compound?
**A.** 327

**Q.** And the “Secondary renal composite, Incidence Rate per 1000 PY” value (median follow-up 2.2 years)?
**A.** 48.9 per 1000 PY

**Q.** And the “Composite of first event of CV death, non-fatal MI, or non-fatal stroke (3P-MACE), Number of Subjects” value (median follow-up 2.2 years, added to standard of care)?
**A.** 434

**Q.** And the “All-cause mortality, Subjects (%)” value (median follow-up 2.2 years, listed as TRADJENTA)?
**A.** (10.5%)

**Q.** And the “Hospitalization for heart failure, Subjects (%)” value (median follow-up 2.2 years, listed as linagliptin)?
**A.** 6.0%
